Laboratory results as given in patent US20120231025A1 (priority 2009, published 2012).
Entries after “also recorded” stand apart in the source; their conditions may differ. Read-outs that look alike come from different tables or passages of the source.

Assays:
bone marrow cells = bone marrow cells irradiated with 1 Gy, injected into lethally irradiated recipients (8 Gy); peptide 10 ug per kg intraperitoneally 15-30 minutes after the cells; cited from earlier work
[1] = tested on: influenza of the H1N2, H3N2, and B strains; parameters: species or system Balb/c mice; details: mouse, in vivo
influenza antigen = format: in vivo, Balb/c mice
[2] = tested on: peripheral blood mononuclear cells (PBMC); assay: MIMIC peripheral tissue equivalent (PTE) assay; format: cell-based, human
antibody forming cells = details: cited from earlier work
T-cells in spleen = details: peptide 10 μg/kg, cited from earlier work
spleen and thymus = details: mice irradiated 2 Gy, peptide 10 μg/kg, cited from earlier work
allogeneic lymphocytes = details: H-2d anti H-2b, cited from earlier work
hematopoietic cells = details: cited from earlier work

Ala-Glu-Trp-OH
Number of CFU-S (bone marrow cells): 8.7 ± 0.4

Glu-Trp-OH
Number of CFU-S (bone marrow cells): 10.5 ± 0.3

H-L-Ile-L-Glu-L-Trp-OH [Neogen]
HI titer [1]: higher response than any of the other groups; also recorded: higher HI response
HI titer ([1]; sc): no HI titer
IgG1 levels (area-under-the-curve analysis) (influenza antigen; low-dose Neogen with Vaxigrip compared with Vaxigrip alone): statistically significant increase in IgG1 levels
IgG1 response (influenza antigen; mouse, in vivo): progressively lower IgG1 responses
IgG2a response (influenza antigen; mouse, in vivo): higher IgG2a responses
Cell-surface expression of HLA-DR on dendritic cells [2]: primed for antigen presentation
Dendritic cells migrating (reverse transmigrating) across the HUVEC layer ([2]; Neogen alone, preliminary): fewer dendritic cells migrating across the HUVEC layer; also recorded: reduced the number of cells found to reverse transmigrate
Number of dendritic cells recovered ([2]; Neogen alone, preliminary): did not
Number of dendritic cells recovered ([2]; Neogen in the presence of antigen, preliminary): increased the number of dendritic cells recovered from the system
Dendritic cells migrating (reverse transmigrating) across the HUVEC layer ([2]; Neogen plus antigen, preliminary): fewer dendritic cells migrating across the HUVEC layer; also recorded: reduced the number of cells found to reverse transmigrate
Differentiation of donor PBMCs into macrophages and dendritic cells ([2]; as little as 1 ug/mL of Neogen in the presence of antigen, preliminary): enhanced the ability of donor PBMCs to differentiate into macrophages and dendritic cells
Number of CFU-S (bone marrow cells): 11.5 ± 0.3
AFC increase, humoral response to SE (antibody forming cells; intact mice, peptide 10 μg/kg intramuscularly, 3 or 4 times): 5 times
Number of antibody forming cells (antibody forming cells; mice irradiated 2 Gy, peptide 10 μg/kg, 3 and 4 injections): practically doubled
T-cell count (T-cells in spleen; intact mice, 3 or 4 times): being the same as it was
T-cell count in spleen (T-cells in spleen; mice irradiated 2 Gy, 1 to 4 injections, especially three or four): grew in all mice who received the peptide injections
Karyocyte count in thymus (spleen and thymus; 3 and 4 injections): a certain growth of the karyocyte count in thymus
Karyocyte count in spleen per mg of organ weight (spleen and thymus; one and four injections): increase in the karyocyte count in spleen
Proliferation of allogeneic lymphocytes in MLC (allogeneic lymphocytes; peptide 0.1 μg/mL): negligible inhibition of the proliferation
Proliferation of allogeneic lymphocytes in MLC (allogeneic lymphocytes; peptide 1, 10, and 20 μg/mL): stimulated proliferation of the allogeneic lymphocytes
Hemoglobin levels (hematopoietic cells; animals first irradiated and then treated, U.S. Pat. No. 6,159,950, Example 8): more rapidly restored hemoglobin levels
Antibody forming cells (AFC) after challenge with sheep erythrocytes (hematopoietic cells; irradiated mice, U.S. Pat. No. 6,159,950, Example 4): making antibody forming cells (AFC) against the challenge

Ile-Glu-(Trp)-OH
Number of CFU-S (bone marrow cells): 8.5 ± 0.5

Ile-Glu-Trp-NH2
Number of CFU-S (bone marrow cells): 7.9 ± 0.4

Leu-Glu-Trp-OH
Number of CFU-S (bone marrow cells): 6.5 ± 0.5

Lys-Glu-(Trp)-OH
Number of CFU-S (bone marrow cells): 5.9 ± 0.5

Lys-Glu-(Trp-NH2)-OH
Number of CFU-S (bone marrow cells): 5.9 ± 0.4

Lys-Glu-Trp-OH
Number of CFU-S (bone marrow cells): 6.2 ± 0.4

Phe-Glu-Trp-OH
Number of CFU-S (bone marrow cells): 6.6 ± 0.3

Pyro-Glu-Trp-OH
Number of CFU-S (bone marrow cells): 9.3 ± 0.4

Tyr-Glu-Trp-OH
Number of CFU-S (bone marrow cells): 7.3 ± 0.4

Val-Glu-Trp-OH
Number of CFU-S (bone marrow cells): 8.2 ± 0.3

iGlu-Trp-OH
Number of CFU-S (bone marrow cells): 10.1 ± 0.5
